In ChEMBL document CHEMBL1138121 (Bioorg Med Chem Lett, 2006):

The compounds below were run against T1, Glycogen phosphorylase, muscle form (Oryctolagus cuniculus, UniProt P00489) (assay: Inhibitory activity against rabbit muscle GPa).
T1 sequence (P00489 whole entry): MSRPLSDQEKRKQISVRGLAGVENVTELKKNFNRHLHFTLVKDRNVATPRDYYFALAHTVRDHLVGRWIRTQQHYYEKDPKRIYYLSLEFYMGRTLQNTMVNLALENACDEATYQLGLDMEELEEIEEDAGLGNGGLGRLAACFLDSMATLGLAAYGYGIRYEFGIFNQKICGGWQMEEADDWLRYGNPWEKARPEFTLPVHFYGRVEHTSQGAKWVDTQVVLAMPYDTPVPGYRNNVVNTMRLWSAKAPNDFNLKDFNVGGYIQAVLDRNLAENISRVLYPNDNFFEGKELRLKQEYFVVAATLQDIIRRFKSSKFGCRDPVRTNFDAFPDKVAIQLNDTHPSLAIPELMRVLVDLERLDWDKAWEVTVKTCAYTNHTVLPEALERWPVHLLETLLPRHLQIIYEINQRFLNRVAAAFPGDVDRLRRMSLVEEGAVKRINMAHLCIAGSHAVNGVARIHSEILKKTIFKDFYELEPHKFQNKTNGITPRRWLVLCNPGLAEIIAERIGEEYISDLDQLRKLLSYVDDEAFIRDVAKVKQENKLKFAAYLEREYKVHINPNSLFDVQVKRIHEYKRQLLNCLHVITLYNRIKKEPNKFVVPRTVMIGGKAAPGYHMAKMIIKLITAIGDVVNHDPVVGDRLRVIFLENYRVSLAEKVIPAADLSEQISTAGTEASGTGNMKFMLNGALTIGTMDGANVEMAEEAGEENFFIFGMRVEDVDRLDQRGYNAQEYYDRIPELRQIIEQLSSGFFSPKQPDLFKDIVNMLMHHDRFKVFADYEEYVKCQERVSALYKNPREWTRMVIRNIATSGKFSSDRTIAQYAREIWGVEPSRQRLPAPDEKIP
Assay type: tissue-based, Muscle tissue

SMILES | IC50
CC(=O)O[C@@H]1C[C@]2(C)[C@H]3CC=C4[C@@H]5CC(C)(C)CC[C@]5(C(=O)OCc5ccccc5)CC[C@@]4(C)[C@]3(C)CC[C@H]2C(C)(C)[C@H]1O | 80 µM
CC1(C)CC[C@]2(C(=O)OCCCCN3CCOCC3)CC[C@]3(C)C(=CC[C@@H]4[C@@]5(C)C[C@@H](O)[C@H](O)C(C)(C)[C@@H]5CC[C@]43C)[C@@H]2C1 | 121 µM
CC1(C)CC[C@]2(C(=O)OCc3ccccc3)CC[C@]3(C)C(=CC[C@@H]4[C@@]5(C)C[C@@H](O)C(=O)C(C)(C)[C@@H]5CC[C@]43C)[C@@H]2C1 | 29 µM
CCN(CC)CCCCOC(=O)[C@]12CCC(C)(C)C[C@H]1C1=CC[C@@H]3[C@@]4(C)C[C@@H](O)[C@H](O)C(C)(C)[C@@H]4CC[C@@]3(C)[C@]1(C)CC2 | 62 µM
CC1(C)CC[C@]2(C(=O)OCCCCN3CCCCC3)CC[C@]3(C)C(=CC[C@@H]4[C@@]5(C)C[C@@H](O)[C@H](O)C(C)(C)[C@@H]5CC[C@]43C)[C@@H]2C1 | 580 µM
CC1(C)CC[C@]2(C(=O)OCc3ccccc3)CC[C@]3(C)C(=CC[C@@H]4[C@@]5(C)C[C@@H](O[Si](C)(C)C(C)(C)C)[C@@H](O)C(C)(C)[C@@H]5CC[C@]43C)[C@@H]2C1 | 580 µM
CC1(C)CC[C@]2(C(=O)OCCN3CCOCC3)CC[C@]3(C)C(=CC[C@@H]4[C@@]5(C)C[C@@H](O)[C@H](O)C(C)(C)[C@@H]5CC[C@]43C)[C@@H]2C1 | 43 µM
CC(=O)O[C@@H]1C[C@]2(C)[C@H]3CC=C4[C@@H]5CC(C)(C)CC[C@]5(C(=O)OCc5ccccc5)CC[C@@]4(C)[C@]3(C)CC[C@H]2C(C)(C)C1=O | 29 µM
CC(=O)O[C@@H]1C[C@]2(C)[C@H]3CC=C4[C@@H]5CC(C)(C)CC[C@]5(C(=O)OCc5ccccc5)CC[C@@]4(C)[C@]3(C)CC[C@H]2C(C)(C)[C@@H]1O | 63 µM
CC1(C)CC[C@]2(C(=O)OCc3ccccc3)CC[C@]3(C)C(=CC[C@@H]4[C@@]5(C)C[C@@H](O[Si](C)(C)C(C)(C)C)[C@H](O)C(C)(C)[C@@H]5CC[C@]43C)[C@@H]2C1 | 1710 µM
CC1(C)CC[C@]2(C(=O)OCc3ccccc3)CC[C@]3(C)C(=CC[C@@H]4[C@@]5(C)C=C(O)C(=O)C(C)(C)[C@@H]5CC[C@]43C)[C@@H]2C1 | 30 µM

Continued, values first:

IC50 | SMILES
19 µM | CCOC(=O)COC(=O)[C@]12CCC(C)(C)C[C@H]1C1=CC[C@@H]3[C@@]4(C)C[C@@H](O)[C@H](O)C(C)(C)[C@@H]4CC[C@@]3(C)[C@]1(C)CC2
51 µM | CCN(CC)CCOC(=O)[C@]12CCC(C)(C)C[C@H]1C1=CC[C@@H]3[C@@]4(C)C[C@@H](O)[C@H](O)C(C)(C)[C@@H]4CC[C@@]3(C)[C@]1(C)CC2
153 µM | CC1(C)CC[C@]2(C(=O)OCCO)CC[C@]3(C)C(=CC[C@@H]4[C@@]5(C)C[C@@H](O)[C@H](O)C(C)(C)[C@@H]5CC[C@]43C)[C@@H]2C1
66 µM | CC1(C)CC[C@]2(C(=O)OCc3ccccc3)CC[C@]3(C)C(=CC[C@@H]4[C@@]5(C)C[C@@H](O)[C@@H](O)C(C)(C)[C@@H]5CC[C@]43C)[C@@H]2C1
7 µM | CC1(C)CC[C@]2(C(=O)OCCCCBr)CC[C@]3(C)C(=CC[C@@H]4[C@@]5(C)C[C@@H](O)[C@H](O)C(C)(C)[C@@H]5CC[C@]43C)[C@@H]2C1
393 µM | COC(=O)[C@]12CCC(C)(C)C[C@H]1C1=CC[C@@H]3[C@@]4(C)C[C@@H](O)[C@H](O)C(C)(C)[C@@H]4CC[C@@]3(C)[C@]1(C)CC2 [MASLINIC ACID METHYL ESTER]
1650 µM | CC1(C)CC[C@]2(C(=O)OCC(=O)O)CC[C@]3(C)C(=CC[C@@H]4[C@@]5(C)C[C@@H](O)[C@H](O)C(C)(C)[C@@H]5CC[C@]43C)[C@@H]2C1
50 µM | CC1(C)CC[C@]2(C(=O)OCCBr)CC[C@]3(C)C(=CC[C@@H]4[C@@]5(C)C[C@@H](O)[C@H](O)C(C)(C)[C@@H]5CC[C@]43C)[C@@H]2C1
66 µM | CC1(C)CC[C@]2(C(=O)OCn3cccn3)CC[C@]3(C)C(=CC[C@@H]4[C@@]5(C)C[C@@H](O)[C@H](O)C(C)(C)[C@@H]5CC[C@]43C)[C@@H]2C1
31 µM | CC1(C)CC[C@]2(C(=O)OCCN3CCCCC3)CC[C@]3(C)C(=CC[C@@H]4[C@@]5(C)C[C@@H](O)[C@H](O)C(C)(C)[C@@H]5CC[C@]43C)[C@@H]2C1
